Key:
[1] = Inhibition of LPA-mediated ATX activation in human BJeH cells assessed as AKT phosphorylation level incubated for 30 mins by Western blot analysis
[2] = Inhibition of LPA-mediated ATX activation in human BJeH cells assessed as ERK phosphorylation level incubated for 30 mins by Western blot analysis

Compound `C[C@H](CCC(=O)N1CCC(Oc2ccc([B-](F)(F)F)cc2)CC1)[C@H]1CC[C@H]2C3[C@@H](O)C[C@@H]4C[C@H](O)CC[C@]4(C)[C@H]3CC[C@]12C` (some centres not stated) has an EC50 [1] of 100 nM and an EC50 [2] of 100 nM.

Reference: BindingDB's records for PubMed 35440138 (University of Strathclyde, 2022)
